From PMC5571359, “Screening the Medicines for Malaria Venture Pathogen Box across Multiple Pathogens Reclassifies Starting Points for Open-Source Drug Discovery” (Antimicrobial Agents and Chemotherapy, 2017)
Read-outs that look alike come from different tables or passages of the source.

Experiments:
P. falciparum ABS = conditions: cited from earlier work; for IC50: read-out: Pf 3D7 Pbox IC50; for EC50: ChEMBL Data
liver stage = conditions: cited from earlier work
HepG2 = conditions: cited from earlier work; for CC50: read-out: HepG2 PBox CC50 µM
HEK293 cells = test: HEK293 resazurin cell cytotoxicity assay; conditions: for IC50 / inhibition at 20 µM: Homo sapiens
[1] = system: T. cruzi C4 β-galactosidase reporter parasite in MRC 5SV2 host cells; conditions: ref Pbox supporting information; read-out: T. cruzi Pbox IC50; cited from earlier work
T. brucei brucei = conditions: ref Pbox supporting information; read-out: T.b. brucei Pbox IC50; cited from earlier work
T. brucei rhodesiense = conditions: ref Pbox supporting information; read-out: T .b. rohdensie Pbox IC50; cited from earlier work
[2] = system: L. infanium (macrophages); design: method as in Pbox supporting information; conditions: ref Pbox supporting information; cited from earlier work
[3] = system: T. b. brucei 427 bloodstream trypanosomes; test: T. b. brucei resazurin viability assay; assay type: cell-based, Trypanosoma brucei brucei
[4] = P. falciparum 3D7, ref PBox supporting information
[5] = ref Pbox supporting information
[6] = ref PBox supporting information
[7] = HEK293, read-out: HEK % Inhibition 20uM/IC50 Discovery Biology (IA)
[8] = Trypanosoma brucei; read-out: T b.brucei Discovery Biology IC50
[9] = HEK293, read-out: HEK % Inhibition 20uM/IC50 Discovery Biology
[10] = Trypanosoma brucei; PBox compounds; read-out: IC50 T. brucei brucei (Discovery Biology)

| Structure (SMILES) | IC50 [1] | IC50 (T. brucei brucei) | IC50 (T. brucei rhodesiense) | IC50 [2] | IC50 [3, 8] | HepG2 PBox CC20 (HepG2; [6]) | IC50 (HEK293 cells; [9]) | also measured |
| --- | --- | --- | --- | --- | --- | --- | --- | --- |
| Clc1cccc(C(c2ccc(CN3CCNCC3)cc2)n2ccnc2)c1 (stereo not shown) [MMV663250] |  |  |  |  |  |  |  | IC50 (P. falciparum ABS; [4]): 1.63 µM; IC50 (liver stage; [5]): > 10 µM; CC50 (HepG2; [6]): > 10 µM; IC50 (HEK293 cells; [7]): > 20 µM |
| Clc1ccc(CN2CCN(C3=NCCN3)CC2)cc1Cl [MMV689060] | 6.57 µM | 31.6 µM | 30.1 µM | > 64 µM |  |  |  |  |
| N=C(N)c1ccc(-c2cc(-c3ccccc3)on2)cc1 [MMV688514] | 4.04 µM | 4.06 µM | 1.08 µM | 2.54 µM | 3.53 µM | 2.6 µM | > 20 µM |  |
| c1ccc(Oc2ccc(-c3cc(N4CCNCC4)[nH]n3)cc2)cc1 [MMV687706] | 4.48 µM | 0.99 µM | 0.97 µM | 4.06 µM | 5.05 µM | 6.4 µM | > 20 µM |  |
| CN1CCCN(C(c2ccccc2)c2ccc(Cl)cc2)CC1 (stereo not shown) [MMV004168] | 9.44 µM | 4.64 µM | 1.94 µM | 36.3 µM |  |  |  |  |
| CCN(CC)S(=O)(=O)c1ccc(C(=O)Nc2cc(C)nn2-c2nc(C)c(C)c(=O)[nH]2)cc1 [MMV595321] | 1.96 µM | 5.3 µM | 1.7 µM | 6.87 µM | 4.34 µM |  |  | activity in the HEK293 cytotoxicity assay (HEK293 cells): comparable activity; inhibition at 20 µM (HEK293 cells; [9]): 74% |
| c1cc(C2=NCCN2)cc(-c2cc(-c3ccc(C4=NCCN4)cc3)no2)c1 [MMV688361] | > 32 µM | 5.63 µM | 3 µM | > 32 µM |  | 4.5 µM |  |  |
| CCC(=O)Nc1ccccc1C(=O)Nc1ccccn1 [MMV202553] | > 64 µM | 2.46 µM | 1.31 µM | > 64 µM | 1.01 µM |  | > 20 µM | IC50 [3, 10]: 1 µM |
| Cc1cccnc1NC(=O)c1cccc(OCc2c(C)noc2C)c1 [MMV688793] | > 64 µM | 2.07 µM | 0.65 µM | > 64 µM | 1.16 µM |  | > 20 µM | IC50 [3, 10]: 1.2 µM |
| COc1cc(C2=NCCN2)ccc1-c1cn(-c2cccc(C3=NCCN3)c2)nn1 [MMV688407] | 25 µM | > 32 µM | 3.72 µM | > 32 µM |  | 22.9 µM |  |  |
| CNC(=O)C1Cc2ccccc2N1C(=O)Cc1ccc(F)cc1 (stereo not shown) [MMV188296] | > 64 µM | 0.49 µM | 0.38 µM | > 64 µM | 1.47 µM |  | > 20 µM |  |
| CO[C@@H](C(=O)N1Cc2n[nH]c(NC(=O)c3ccc(N4CCN(C)CC4)cc3)c2C1)c1ccccc1 [MMV676600] | 6.48 µM | 1.02 µM | 0.37 µM | 4.06 µM | 1.34 µM | 4.8 µM |  | inhibition at 20 µM (HEK293 cells; [9]): 45% |
| CC1=Nc2ccc(Cl)cc2C(c2ccccc2)N1CCNC(=O)CN(C)C (stereo not shown) [MMV688410] | 17.1 µM | 3.78 µM | 3.11 µM | 10.1 µM |  | 16.4 µM |  |  |
| Cc1nn2c(O)c3c(nc2c1-c1ccc(F)cc1)CCCC3 [MMV099637] | 2.21 µM | 1.94 µM | 0.48 µM | 50.4 µM | 4.43 µM |  | > 20 µM |  |
| CCOC(=O)c1noc(N)c1-c1ccccc1 [MMV1236379] | > 64 µM | 1.22 µM | 0.46 µM | > 64 µM |  |  |  |  |
| COc1ccc(C2=NN(C3CCCCCC3)C(=O)[C@@H]3CC=CC[C@H]23)cc1OCCCCOc1ccc(-c2nn[nH]n2)cc1 [MMV690027] |  | 0.02 µM |  |  |  |  | > 20 µM | IC50 ([3]; Trypanosoma brucei, read-out: T b.brucei Discovery Biology IC50): 0.5 µM |
| OCCc1ccc(Nc2nccc(-c3nnc4ccccn34)n2)cc1 [MMV028694] |  |  |  |  |  |  |  | IC50 [3, 10]: 2.39 µM; EC50 (P. falciparum ABS; P. falciparum, read-out: TCMDC (ref 93) EX50): 0.9 µM; IC50 (P. falciparum ABS; [4]): 1.08 µM; IC50 (liver stage; [5]): 1.47 µM; CC50 (HepG2; [6]): 8.1 µM; IC50 (HEK293 cells; [7]): > 20 µM |
| Cc1cc(C(=O)Nc2cnn(Cc3ccc(Cl)cc3Cl)c2)no1 [MMV009054] |  |  |  |  |  |  |  | EC50 (P. falciparum ABS; NITD, read-out: NITD (ref 94) EC50): 0.62 µM; IC50 (P. falciparum ABS; Pf 3D7, ref Pathogen Box supporting information): 1.88 µM; IC50 (liver stage; liver stage, ref Pathogen Box supporting information, read-out: LIVER STAGE Pbox IC50): 1.39 µM; CC50 (HepG2; HepG2 CC50, ref Pathogen Box supporting information): > 10 µM |
| c1ccc(Oc2ccc(-c3cc(C4CCOCC4)[nH]n3)cc2)cc1 [MMV687762] | 16.4 µM | 7.58 µM | 3.77 µM | > 32 µM | 1.79 µM | 10.8 µM |  |  |
| COc1cc(C2=NCCN2)ccc1-n1cc(-c2cccc(C3=NCCN3)c2)nn1 [MMV688474] | > 32 µM | > 32 µM | 3.81 µM | > 32 µM |  | >80 µM |  |  |
